Results published in patent publication US20240150321A1, “PYRAZOLYLSULFONAMIDE COMPOUNDS AND THEIR USE IN THERAPY” (HOTSPOT THERAPEUTICS, INC., priority 2022, published 2024).

What was measured:
[1] = test system: NF-kB reporter in Jurkat cells; test: NF-kB reporter assay in Jurkat cells stimulated with aCD3/aCD28/PMA; format: cell-based; details: Homo sapiens; Jurkat cells, 1 hr compound pre-incubation, aCD3/aCD28/PMA stimulation 4 hr, One-Glo readout; read-out: NF-kB Reporter Assay IC50
Method in brief: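 Luminescence (One-Glo) from the NF-kB reporter yielded IC50 values. Stimulation lasted 4 h at 37° C with aCD3, aCD28 and PMA (final 5, 5 and 0.03 […]), after 1 h compound pre-exposure of 25,000 Jurkat cells per well in serum-free RPMI.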

[2] = biological target: Avi-tagged FL MALT-1 (Homo sapiens (Human), UniProt Q9UDY8); test: MALT-1 Fluorogenic Peptide Cleavage Assay (MALT1 inhibition assay); format: biochemical; details: Ac-LRSR-AMC peptide substrate, 30 min pre-incubation, 90 min reaction at room temperature
Method in brief: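 Cleavage of Ac-LRSR-AMC, read as fluorescence at 342/441 nm after 90 min at room temperature, with substrate working stocks of 50 μM (Km) or 280 μM (10×Km). Enzyme, Avi-tagged full-length MALT-1 (40 nM stock), was first pre-incubated 30 min with compound in citrate/HEPES pH 6.89 buffer with TCEP, EDTA, CHAPS and 2% DMSO; IC50 fitted from normalised % inhibition.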

Avi-tagged FL MALT-1, sequence (Q9UDY8 whole entry): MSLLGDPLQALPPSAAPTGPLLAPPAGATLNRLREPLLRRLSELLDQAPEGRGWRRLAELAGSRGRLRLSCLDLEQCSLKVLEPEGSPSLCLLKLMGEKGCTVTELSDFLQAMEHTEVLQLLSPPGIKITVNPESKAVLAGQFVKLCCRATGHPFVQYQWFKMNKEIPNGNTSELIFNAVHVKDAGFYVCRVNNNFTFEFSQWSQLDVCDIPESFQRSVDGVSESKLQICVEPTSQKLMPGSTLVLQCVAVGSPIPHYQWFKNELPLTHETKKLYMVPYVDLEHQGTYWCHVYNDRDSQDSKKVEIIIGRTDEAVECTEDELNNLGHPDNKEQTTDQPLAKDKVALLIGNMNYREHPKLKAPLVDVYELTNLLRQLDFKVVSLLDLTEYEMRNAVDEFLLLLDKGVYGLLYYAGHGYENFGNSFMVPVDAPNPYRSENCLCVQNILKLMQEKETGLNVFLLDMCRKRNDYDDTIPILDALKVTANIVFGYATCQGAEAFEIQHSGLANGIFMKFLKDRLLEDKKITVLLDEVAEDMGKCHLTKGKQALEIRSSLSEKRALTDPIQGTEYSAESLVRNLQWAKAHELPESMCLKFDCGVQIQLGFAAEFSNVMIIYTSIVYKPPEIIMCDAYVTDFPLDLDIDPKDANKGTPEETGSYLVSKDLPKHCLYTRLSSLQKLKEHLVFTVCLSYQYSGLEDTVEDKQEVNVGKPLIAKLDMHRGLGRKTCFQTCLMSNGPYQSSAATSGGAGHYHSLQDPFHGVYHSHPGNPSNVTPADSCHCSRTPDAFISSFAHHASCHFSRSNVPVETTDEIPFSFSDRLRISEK

SMILES | IC50 [1] [nM] | IC50 [2] [nM]
COc1ccc2cnn(C)c2c1NS(=O)(=O)c1cnn(-c2cc(C3CCO3)ccn2)c1 (stereo not shown) [Compound I-263, N-(6-methoxy-1-methyl-1H-indazol-7-yl)-1-(4-(oxetan-2-yl)pyridin-2-yl)-1H-pyrazole-4-sulfonamide] | < 400 | 400 to 1000
Cn1ncc2cccc(NS(=O)(=O)c3cnn(-c4cc(C5COC5)ccn4)c3)c21 [Compound I-264, N-(1-methylindazol-7-yl)-1-[4-(oxetan-3-yl)pyridin-2-yl]pyrazole-4-sulfonamide] | < 400 | > 2500
Cn1ncc2cccc(NS(=O)(=O)c3cnn(-c4cc(C5CCO5)ccn4)c3)c21 (stereo not shown) [Compound I-265, N-(1-methylindazol-7-yl)-1-[4-(oxetan-2-yl)pyridin-2-yl]pyrazole-4-sulfonamide] | < 400 | > 2500
COc1ccc2cnn(C)c2c1NS(=O)(=O)c1cnn(-c2cc(C(F)(F)F)n(C)n2)c1 [Compound I-266, N-(6-methoxy-1-methyl-1H-indazol-7-yl)-1′-methyl-5′-(trifluoromethyl)-1′H-[1,3′-bipyrazole]-4-sulfonamide] | < 400 | ≤ 400
COC[C@](C)(O)c1ccnc(-n2cc(S(=O)(=O)Nc3cccc4cnn(C)c34)cn2)c1 [Compound I-267] | < 400 | > 2500
COCC(F)(F)c1ccnc(-n2cc(S(=O)(=O)Nc3cccc4cnn(C)c34)cn2)c1 [Compound I-268] | < 400 | > 2500
C[C@@H](O)c1ccnc(-n2cc(S(=O)(=O)Nc3cccc4cnn(C)c34)cn2)c1 [Compound I-269] | < 400 | > 2500
C[C@H](O)c1ccnc(-n2cc(S(=O)(=O)Nc3cccc4cnn(C)c34)cn2)c1 [Compound I-270] | < 400 | > 2500
Cn1ncc2cccc(NS(=O)(=O)c3cnn(-c4cc([C@]5(O)C[C@@H](C)C5)ccn4)c3)c21 [Compound I-271, 1-(4-((1s,3s)-1-hydroxy-3-methylcyclobutyl)pyridin-2-yl)-N-(1-methyl-1H-indazol-7-yl)-1H-pyrazole-4-sulfonamide] | < 400 | > 2500
CCc1ccc2cnn(C)c2c1NS(=O)(=O)c1cnn(-c2cc(C(C)(C)O)ccn2)c1 [Compound I-274, N-(6-ethyl-1-methyl-1H-indazol-7-yl)-1-(4-(2-hydroxypropan-2-yl)pyridin-2-yl)-1H-pyrazole-4-sulfonamide] | < 400 | ≤ 400
COC[C@@](C)(O)c1ccnc(-n2cc(S(=O)(=O)Nc3cccc4cnn(C)c34)cn2)c1 [Compound I-275] | 1000 to 2500 | > 2500
CCC(O)(CC)c1ccnc(-n2cc(S(=O)(=O)Nc3cccc4cnn(C)c34)cn2)c1 [Compound I-276] | < 400 | > 2500
CC[C@@H](O)c1ccnc(-n2cc(S(=O)(=O)Nc3cccc4cnn(C)c34)cn2)c1 [Compound I-278, (R)-1-(4-(1-hydroxypropyl)pyridin-2-yl)-N-(1-methyl-1H-indazol-7-yl)-1H-pyrazole-4-sulfonamide] | < 400 | > 2500
CCC(O)(CC)c1ccnc(-n2cc(S(=O)(=O)Nc3c(OC)ccc4cnn(C)c34)cn2)c1 [Compound I-279, 1-[4-(3-hydroxypentan-3-yl)pyridin-2-yl]-N-(6-methoxy-1-methylindazol-7-yl)pyrazole-4-sulfonamide] | 400 to 1000 | 400 to 1000
Cn1ncc2cccc(NS(=O)(=O)c3cnn(-c4cc(N5CCOC5=O)ccn4)c3)c21 [Compound I-282, N-(1-methyl-1H-indazol-7-yl)-1-(4-(2-oxooxazolidin-3-yl)pyridin-2-yl)-1H-pyrazole-4-sulfonamide] | < 400 | > 2500
Cn1ncc2cccc(NS(=O)(=O)c3cnn(-c4cc(N5CC(C)(C)OC5=O)ccn4)c3)c21 [Compound I-283] | < 400 | > 2500
Cn1ncc2cccc(NS(=O)(=O)c3cnn(-c4cc(N5CCCC5=O)ccn4)c3)c21 [Compound I-284] | < 400 | > 2500
Cn1ncc2cccc(NS(=O)(=O)c3cnn(-c4cc(N5CC(C)(C)NC5=O)ccn4)c3)c21 [Compound I-285, 1-(4-(4,4-Dimethyl-2-Oxoimidazolidin-1-yl)Pyridin-2-yl)-N-(1-Methyl-1H-Indazol-7-yl)-1H-Pyrazole-4-Sulfonamide] | 400 to 1000 | > 2500
COc1ncc2cnn(C)c2c1NS(=O)(=O)c1cnn(-c2cc(C(F)(F)F)n(C)n2)c1 [Compound I-286, N-(6-methoxy-1-methyl-1H-pyrazolo[4,3-c]pyridin-7-yl)-1′-methyl-5′-(trifluoromethyl)-1′H-[1,3′-bipyrazole]-4-sulfonamide] | 400 to 1000 | ≤ 400
CC(=O)N1CC(O)(c2ccnc(-n3cc(S(=O)(=O)Nc4cccc5cnn(C)c45)cn3)c2)C1 [Compound I-287] | > 2500 | > 2500
Cn1ncc2cccc(NS(=O)(=O)c3cnn(-c4cc([C@]5(O)C[C@H](C)C5)ccn4)c3)c21 [Compound I-288, 1-(4-((1r,3r)-1-hydroxy-3-methyl-cyclobutyl)pyridin-2-yl)-N-(1-methyl-1H-indazol-7-yl)-1H-pyrazole-4-sulfonamide] | < 400 | > 2500

SMILES | IC50 [1] [nM] | IC50 [2] [nM]
COCC(F)(COC)c1ccnc(-n2cc(S(=O)(=O)Nc3cccc4cnn(C)c34)cn2)c1 [Compound I-289] | > 2500 | > 2500
CC[C@](C)(O)c1ccnc(-n2cc(S(=O)(=O)Nc3cccc4cnn(C)c34)cn2)c1 [Compound I-294] | < 400 | > 2500
CC[C@@](C)(O)c1ccnc(-n2cc(S(=O)(=O)Nc3cccc4cnn(C)c34)cn2)c1 [Compound I-295] | < 400 | > 2500
CCC(CC)(OC)c1ccnc(-n2cc(S(=O)(=O)Nc3cccc4cnn(C)c34)cn2)c1 [Compound I-296] | < 400 | > 2500
CCC(OC)c1ccnc(-n2cc(S(=O)(=O)Nc3cccc4cnn(C)c34)cn2)c1 (stereo not shown) [Compound I-297, 1-{4-[1-methoxypropyl]pyridin-2-yl}-N-(1-methylindazol-7-yl)pyrazole-4-sulfonamide] | < 400 | > 2500
CC[C@@H](OC)c1ccnc(-n2cc(S(=O)(=O)Nc3cccc4cnn(C)c34)cn2)c1 [Compound I-298] | < 400 | > 2500
CCC(CC)(OC)c1ccnc(-n2cc(S(=O)(=O)Nc3c(OC)ccc4cnn(C)c34)cn2)c1 [Compound I-299, N-(6-Methoxy-1-Methyl-1H-Indazol-7-yl)-1-(4-(3-Methoxypentan-3-yl)Pyridin-2-yl)-1H-Pyrazole-4-Sulfonamide] | 400 to 1000 | ≤ 400
COC[C@](C)(OC)c1ccnc(-n2cc(S(=O)(=O)Nc3cccc4cnn(C)c34)cn2)c1 [Compound I-300] | < 400 | > 2500
COC[C@@](C)(OC)c1ccnc(-n2cc(S(=O)(=O)Nc3cccc4cnn(C)c34)cn2)c1 [Compound I-301] | < 400 | > 2500
C[C@@H]1COC(=O)N1c1ccnc(-n2cc(S(=O)(=O)Nc3cccc4cnn(C)c34)cn2)c1 [Compound I-302] | < 400 | > 2500
C[C@H]1COC(=O)N1c1ccnc(-n2cc(S(=O)(=O)Nc3cccc4cnn(C)c34)cn2)c1 [Compound I-303] | < 400 | > 2500
COC[C@@H](O)c1ccnc(-n2cc(S(=O)(=O)Nc3cccc4cnn(C)c34)cn2)c1 [Compound I-304] | 400 to 1000 | > 2500
COC[C@H](O)c1ccnc(-n2cc(S(=O)(=O)Nc3cccc4cnn(C)c34)cn2)c1 [Compound I-305] | 400 to 1000 | > 2500
CO[C@]1(c2ccnc(-n3cc(S(=O)(=O)Nc4cccc5cnn(C)c45)cn3)c2)CCOC1 [Compound I-306] | < 400 | > 2500
Cn1ncc2cccc(NS(=O)(=O)c3cnn(-c4cc(C(C)(C)CO)ccn4)c3)c21 [Compound I-307, 1-(4-(1-hydroxy-2-methylpropan-2-yl)pyridin-2-yl)-N-(1-methyl-1H-indazol-7-yl)-1H-pyrazole-4-sulfonamide] | < 400 | > 2500
CN1CCC[C@@H](n2cc(S(=O)(=O)Nc3cccc4cnn(C)c34)cn2)C1 [Compound I-308, N-(1-methylindazol-7-yl)-1-[(3R)-1-methylpiperidin-3-yl]pyrazole-4-sulfonamide] | > 2500 | > 2500
CN1CCC[C@H](n2cc(S(=O)(=O)Nc3cccc4cnn(C)c34)cn2)C1 [Compound I-309] | > 2500 | > 2500
CO[C@@]1(c2ccnc(-n3cc(S(=O)(=O)Nc4cccc5cnn(C)c45)cn3)c2)CCOC1 [Compound I-311] | < 400 | > 2500
CC[C@@](C)(O)c1ccnc(-n2cc(S(=O)(=O)Nc3c(OC)ccc4cnn(C)c34)cn2)c1 [Compound I-316] | < 400 | 1000 to 2500
CC[C@H](OC)c1ccnc(-n2cc(S(=O)(=O)Nc3c(OC)ccc4cnn(C)c34)cn2)c1 [Compound I-317, (S)—N-(6-Methoxy-1-Methyl-1H-Indazol-7-yl)-1-(4-(1-Methoxypropyl)Pyridin-2-yl)-1H-Pyrazole-4-Sulfonamide] | < 400 | ≤ 400
